Values after ≈ are worked out from the molar mass of the structure shown.

Test systems include Staphylococcus xylosus; Escherichia coli D31; Escherichia coli B; Pseudomonas aeruginosa; Bacillus subtilis 168; Staphylococcus aureus 1; Staphylococcus aureus; Escherichia coli; Acinetobacter baumannii.
What all share (assay): ≥ marks a high value that may be exact or a test limit, other limits are often not marked, values filed in µg/mL are converted to µM
The test system of test [1] is Escherichia coli DH5alpha.
The test system of test [2] is Streptococcus mutans ATCC 25175.
For test [3], the system named is Staphylococcus aureus ATCC 25923.
Test [4] deals with Candida albicans ATCC 10231.
Test [5] has as its system Pseudomonas aeruginosa ATCC 15442.
In test [6] the test system is Staphylococcus epidermidis.
Test [7] has as its system Pseudomonas aeruginosa ATCC 27853.
Test [8] relates to Micrococcus luteus CCM 144.
In test [9] the test system is Staphylococcus aureus ATCC 43300.
The subject of test [10] is Candida albicans F7-39/IDE99.
Test [11] concerns Micrococcus luteus ATCC 9341.
The subject of test [12] is Pseudomonas aeruginosa PAO1.
Test [13] deals with Escherichia coli ATCC 25922.
Test [14] concerns Salmonella enterica serovar Typhimurium.
The test system of test [15] is Escherichia coli ATCC 8739.
For test [16], the system named is Staphylococcus aureus ATCC 6538.
The test system of test [17] is Bacillus subtilis ATCC 6633.
For test [18], the system named is Candida albicans ATCC 90028.

For `CC[C@H](C)[C@H](NC(=O)[C@H](CC(C)C)NC(=O)[C@@H](NC(=O)[C@H](CC(C)C)NC(=O)[C@@H](NC(=O)[C@@H](N)CCCCN)[C@@H](C)CC)[C@@H](C)CC)C(=O)N[C@@H](CCCCN)C(=O)N[C@@H](CCCN=C(N)N)C(=O)N[C@@H](CCCCN)C(=O)O` [KILILIKRK], the MIC with Staphylococcus xylosus was 16 µM (≈ 18 µg/mL); in [1], at least 32 µM.

With `CC(C)C[C@H](NC(=O)CN)C(=O)N[C@H](C(=O)N[C@H](C(=O)N[C@@H](CC(=O)O)C(=O)N[C@H](C(=O)N[C@@H](CC(C)C)C(=O)N[C@@H](CCCCN)C(=O)NCC(=O)N[C@@H](C)C(=O)N[C@@H](C)C(=O)N[C@@H](CCCCN)C(=O)N[C@H](C(=O)N[C@H](C(=O)N[C@@H](C)C(=O)N[C@@H](C)C(=O)N[C@@H](CCC(=O)O)C(=O)N[C@@H](CC(C)C)C(=O)N[C@@H](CC(C)C)C(=O)N[C@@H](CCCN=C(N)N)C(=O)N[C@@H](CCCCN)C(=O)N[C@@H](C)C(=O)N[C@@H](Cc1cnc[nH]1)C(N)=O)C(C)C)[C@@H](C)O)[C@@H](C)O)[C@@H](C)O)C(C)C` [GLVTDTLKGAAKTVAAELLRKAH], the MIC is at least 100 µM in test [2]; 45.3 µM (≈ 107 µg/mL) in test [3]; above 100 µM in test [4]; at least 100 µM in test [5]; at least 100 µM in the test on Escherichia coli D31.

As for `CC[C@H](C)[C@H](NC(=O)CN)C(=O)N[C@@H](Cc1c[nH]c2ccccc12)C(=O)N[C@@H](CO)C(=O)N[C@@H](CO)C(=O)N[C@@H](CC(C)C)C(=O)N[C@@H](CC(C)C)C(=O)N[C@@H](CCCCN)C(=O)N[C@@H](CCCCN)C(=O)N[C@@H](CC(C)C)C(=O)N[C@@H](CCCCN)C(=O)N[C@@H](CCCCN)C(=O)N[C@H](C(=O)N[C@H](C(=O)N[C@@H](C)C(=O)N[C@@H](CCCCN)C(N)=O)[C@@H](C)CC)[C@@H](C)CC` [GIWSSLLKKLKKIIAK], the MIC is 1.6 µM (≈ 2.92 µg/mL) with Escherichia coli B; 1.5 µM (≈ 2.74 µg/mL) in test [6]; 21 µM (≈ 38.3 µg/mL) in the test on Pseudomonas aeruginosa; 6.3 µM (≈ 11.5 µg/mL) in [7]; 7 µM (≈ 12.8 µg/mL) in the test with Bacillus subtilis 168; 3 µM (≈ 5.48 µg/mL) in test [8]. Further, the MIC in test [9] stood at 20 µM (≈ 36.5 µg/mL); with Staphylococcus aureus 1, 4.6 µM (≈ 8.4 µg/mL); in test [10], 16 µM (≈ 29.2 µg/mL); in the test on Staphylococcus aureus, 5.3 µM (≈ 9.67 µg/mL).

Compound `CC[C@H](C)[C@H](N)C(=O)N[C@@H](CC(C)C)C(=O)N1CCC[C@H]1C(=O)N[C@@H](Cc1c[nH]c2ccccc12)C(=O)N[C@@H](CCCCN)C(=O)N[C@@H](Cc1c[nH]c2ccccc12)C(=O)N1CCC[C@H]1C(=O)N[C@@H](Cc1c[nH]c2ccccc12)C(=O)N[C@@H](Cc1c[nH]c2ccccc12)C(=O)N1CCC[C@H]1C(=O)N[C@@H](Cc1c[nH]c2ccccc12)C(=O)N[C@@H](C)C(=O)N[C@@H](CCCN=C(N)N)C(N)=O` [ILPWKWPWWPWAR] had an MIC in test [11] of 0.4 µM (≈ 0.728 µg/mL).

On to `CC[C@H](C)[C@H](NC(=O)[C@H](CC(C)C)NC(=O)[C@@H](NC(=O)[C@H](CCCN=C(N)N)NC(=O)[C@H](CCCCN)NC(=O)[C@H](CCCN=C(N)N)NC(=O)[C@H](CCCCN)NC(=O)[C@H](CC(C)C)NC(=O)[C@@H](NC(=O)[C@H](CC(C)C)NC(=O)[C@H](CCCCN)NC(=O)[C@@H](N)CCCN=C(N)N)[C@@H](C)CC)[C@@H](C)CC)C(=O)N[C@@H](CCCCN)C(=O)N[C@@H](CCCN=C(N)N)C(=O)O` [RKLILKRKRILIKR], for which the minimum inhibitory concentration (MIC) in the test on Staphylococcus xylosus was determined as 8 µM (≈ 14.7 µg/mL); in test [1], 16 µM (≈ 29.4 µg/mL).

Take `CC[C@H](C)[C@H](NC(=O)CN)C(=O)N[C@@H](CCSC)C(=O)N[C@@H](CO)C(=O)N[C@@H](CO)C(=O)N[C@@H](CC(C)C)C(=O)N[C@@H](CCSC)C(=O)N[C@@H](CCCCN)C(=O)N[C@@H](CCCCN)C(=O)N[C@@H](CC(C)C)C(=O)N[C@@H](C)C(=O)N[C@@H](C)C(=O)N[C@@H](Cc1cnc[nH]1)C(=O)N[C@H](C(=O)N[C@@H](C)C(=O)N[C@@H](CCCCN)C(N)=O)[C@@H](C)CC` [GIMSSLMKKLAAHIAK]: the minimal inhibitory concentration (MIC) in the test on Escherichia coli B worked out at 15 µM (≈ 25.5 µg/mL); in test [6], 13 µM (≈ 22.1 µg/mL); in the test on Pseudomonas aeruginosa, 68 µM (≈ 115 µg/mL); in [7], 20 µM (≈ 34 µg/mL); against Bacillus subtilis 168, 7 µM (≈ 11.9 µg/mL); in test [8], 3 µM (≈ 5.09 µg/mL). Moreover, the MIC in test [9] is 63 µM (≈ 107 µg/mL); against Staphylococcus aureus 1, at least 53 µM; in [10], 18 µM (≈ 30.6 µg/mL); in the test with Staphylococcus aureus it was 64 µM (≈ 109 µg/mL).

Consider `CC[C@H](C)[C@H](NC(=O)[C@H](CCCN=C(N)N)NC(=O)[C@H](CC(C)C)NC(=O)[C@H](CCC(N)=O)NC(=O)[C@@H](N)C(C)C)C(=O)N[C@@H](CCCN=C(N)N)C(=O)N[C@H](C(=O)N[C@@H](CS)C(=O)N[C@H](C(=O)N[C@H](C(=O)N[C@@H](CCCN=C(N)N)C(=O)N[C@@H](CCCCN)C(=O)O)[C@@H](C)CC)C(C)C)C(C)C` [VQLRIRVCVIRK], for which the MIC in test [3] turned out to be 10.8 µM (≈ 16 µg/mL); in the test on Escherichia coli, 30.5 µM (≈ 45.3 µg/mL); with Acinetobacter baumannii, 21.6 µM (≈ 32 µg/mL); in [12] it was 10.8 µM (≈ 16 µg/mL); against Pseudomonas aeruginosa it was 10.8 µM (≈ 16 µg/mL); in test [13] it was 10.8 µM (≈ 16 µg/mL). For the same compound, the MIC in test [14] was 5.39 µM (≈ 8 µg/mL); in the test with Staphylococcus aureus, 7.63 µM (≈ 11.3 µg/mL).

For `CC[C@H](C)[C@H](NC(=O)CN)C(=O)N[C@@H](CC(C)C)C(=O)NCC(=O)N[C@H](C(=O)N[C@H](C(=O)N[C@@H](Cc1ccccc1)C(=O)N[C@@H](CCCCN)C(=O)N[C@@H](C)C(=O)NCC(=O)N[C@@H](CCCCN)C(=O)NCC(=O)N[C@H](C(=O)N[C@H](C(=O)N[C@H]1CSSC[C@@H](C(=O)O)NC(=O)[C@H](CC(C)C)NC(=O)CNC(=O)[C@H]([C@@H](C)O)NC(=O)[C@H](CC(C)C)NC(=O)CNC1=O)C(C)C)[C@@H](C)CC)C(C)C)[C@@H](C)O` [GILGTVFKAGKGIVCGLTGLC], the MIC in test [15] was at least 50 µM; in test [16], 3.1 µM (≈ 6.22 µg/mL); in test [17], 12.5 µM (≈ 25.1 µg/mL); in test [9], 12.5 µM (≈ 25.1 µg/mL); in [18], at least 50 µM.

In the case of `CC[C@H](C)[C@H](NC(=O)CN)C(=O)N[C@@H](CCSC)C(=O)N[C@@H](CO)C(=O)N[C@@H](CO)C(=O)N[C@@H](CC(C)C)C(=O)N[C@@H](CCSC)C(=O)N[C@@H](CCCCN)C(=O)N[C@@H](CCCCN)C(=O)N[C@@H](CC(C)C)C(=O)N[C@@H](C)C(=O)N[C@@H](CCCCN)C(=O)N[C@H](C(=O)N[C@H](C(=O)N[C@@H](CCCCN)C(=O)N[C@@H](CCCCN)C(N)=O)[C@@H](C)CC)[C@@H](C)CC` [GIMSSLMKKLAKIIKK], the MIC in the test on Escherichia coli B was 15 µM (≈ 26.8 µg/mL); in test [6] it was 2.9 µM (≈ 5.19 µg/mL); in the test with Pseudomonas aeruginosa it was 10 µM (≈ 17.9 µg/mL); in [7], 5.2 µM (≈ 9.3 µg/mL); against Bacillus subtilis 168, 7 µM (≈ 12.5 µg/mL); in test [8], 3 µM (≈ 5.37 µg/mL). The MIC amounted to 33 µM (≈ 59 µg/mL) in [9], 8.6 µM (≈ 15.4 µg/mL) against Staphylococcus aureus 1, 7.6 µM (≈ 13.6 µg/mL) in test [10] and 17 µM (≈ 30.4 µg/mL) against Staphylococcus aureus.

On to `CC[C@H](C)[C@H](N)C(=O)N[C@@H](CC(C)C)C(=O)N[C@H](C(=O)N[C@@H](CC(C)C)C(=O)N[C@H](C(=O)N[C@@H](CCCCN)C(=O)N[C@@H](CCCN=C(N)N)C(=O)N[C@@H](CCCCN)C(=O)O)[C@@H](C)CC)[C@@H](C)CC` [ILILIKRK], for which the MIC (in the test on Staphylococcus xylosus; in test [1]) was at least 64 µM throughout.

Regarding `CC[C@H](C)[C@H](NC(=O)[C@H](CC(C)C)NC(=O)[C@@H](NC(=O)[C@H](CC(C)C)NC(=O)[C@@H](NC(=O)[C@H](CCCCN)NC(=O)[C@H](CCCN=C(N)N)NC(=O)[C@@H](N)CCCCN)[C@@H](C)CC)[C@@H](C)CC)C(=O)N[C@@H](CCCCN)C(=O)N[C@@H](CCCN=C(N)N)C(=O)N[C@@H](CCCCN)C(=O)O` [KRKILILIKRK], the MIC with Staphylococcus xylosus turned out to be 2 µM (≈ 2.82 µg/mL); in [1], 8 µM (≈ 11.3 µg/mL).

In general, MIC refers to the least concentration at which growth counts as inhibited. A higher MIC goes with a need for much substance.

These data come from DBAASP.
